In ChEMBL document CHEMBL3991601, “The target landscape of clinical kinase drugs” (Science, 2017):
Calls of active or inactive are those of the source. Cut-off read from the data, not from the text of the source, for most assays here: actives have a measured Kd and inactives only a lower limit.

Experiments:
[1] = molecular target: Cyclin-dependent kinase 17 (Homo sapiens, UniProt Q00537)
[2] = molecular target: T1, Ephrin type-A receptor 1 (Homo sapiens, UniProt P21709)
T1 sequence (P21709 whole entry): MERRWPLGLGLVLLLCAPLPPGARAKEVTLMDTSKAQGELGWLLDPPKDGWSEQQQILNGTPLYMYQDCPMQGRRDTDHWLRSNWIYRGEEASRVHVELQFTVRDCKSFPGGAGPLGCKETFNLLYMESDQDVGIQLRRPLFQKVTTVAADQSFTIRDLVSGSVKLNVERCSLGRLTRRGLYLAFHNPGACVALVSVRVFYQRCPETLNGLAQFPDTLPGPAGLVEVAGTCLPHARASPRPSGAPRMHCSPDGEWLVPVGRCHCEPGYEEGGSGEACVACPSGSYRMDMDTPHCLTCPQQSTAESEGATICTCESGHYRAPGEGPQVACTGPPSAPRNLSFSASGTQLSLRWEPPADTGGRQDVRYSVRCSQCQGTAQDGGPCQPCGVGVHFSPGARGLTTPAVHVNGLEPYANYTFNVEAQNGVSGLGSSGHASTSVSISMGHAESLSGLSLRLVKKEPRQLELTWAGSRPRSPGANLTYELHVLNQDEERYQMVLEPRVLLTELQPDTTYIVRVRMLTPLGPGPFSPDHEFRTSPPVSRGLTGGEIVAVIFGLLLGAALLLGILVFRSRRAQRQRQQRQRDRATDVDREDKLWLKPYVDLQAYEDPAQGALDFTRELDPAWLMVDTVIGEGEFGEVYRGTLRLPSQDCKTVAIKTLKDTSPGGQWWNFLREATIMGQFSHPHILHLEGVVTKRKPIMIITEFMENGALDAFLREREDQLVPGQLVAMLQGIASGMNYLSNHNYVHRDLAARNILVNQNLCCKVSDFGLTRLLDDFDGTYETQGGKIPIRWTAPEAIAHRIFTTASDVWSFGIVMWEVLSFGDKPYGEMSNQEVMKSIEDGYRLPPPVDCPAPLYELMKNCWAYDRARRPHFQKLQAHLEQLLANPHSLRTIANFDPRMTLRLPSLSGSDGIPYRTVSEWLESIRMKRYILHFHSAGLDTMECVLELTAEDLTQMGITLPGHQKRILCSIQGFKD

[3] = molecular target: T2, Receptor-type tyrosine-protein kinase FLT3 (Homo sapiens, UniProt P36888)
T2 sequence (P36888 whole entry): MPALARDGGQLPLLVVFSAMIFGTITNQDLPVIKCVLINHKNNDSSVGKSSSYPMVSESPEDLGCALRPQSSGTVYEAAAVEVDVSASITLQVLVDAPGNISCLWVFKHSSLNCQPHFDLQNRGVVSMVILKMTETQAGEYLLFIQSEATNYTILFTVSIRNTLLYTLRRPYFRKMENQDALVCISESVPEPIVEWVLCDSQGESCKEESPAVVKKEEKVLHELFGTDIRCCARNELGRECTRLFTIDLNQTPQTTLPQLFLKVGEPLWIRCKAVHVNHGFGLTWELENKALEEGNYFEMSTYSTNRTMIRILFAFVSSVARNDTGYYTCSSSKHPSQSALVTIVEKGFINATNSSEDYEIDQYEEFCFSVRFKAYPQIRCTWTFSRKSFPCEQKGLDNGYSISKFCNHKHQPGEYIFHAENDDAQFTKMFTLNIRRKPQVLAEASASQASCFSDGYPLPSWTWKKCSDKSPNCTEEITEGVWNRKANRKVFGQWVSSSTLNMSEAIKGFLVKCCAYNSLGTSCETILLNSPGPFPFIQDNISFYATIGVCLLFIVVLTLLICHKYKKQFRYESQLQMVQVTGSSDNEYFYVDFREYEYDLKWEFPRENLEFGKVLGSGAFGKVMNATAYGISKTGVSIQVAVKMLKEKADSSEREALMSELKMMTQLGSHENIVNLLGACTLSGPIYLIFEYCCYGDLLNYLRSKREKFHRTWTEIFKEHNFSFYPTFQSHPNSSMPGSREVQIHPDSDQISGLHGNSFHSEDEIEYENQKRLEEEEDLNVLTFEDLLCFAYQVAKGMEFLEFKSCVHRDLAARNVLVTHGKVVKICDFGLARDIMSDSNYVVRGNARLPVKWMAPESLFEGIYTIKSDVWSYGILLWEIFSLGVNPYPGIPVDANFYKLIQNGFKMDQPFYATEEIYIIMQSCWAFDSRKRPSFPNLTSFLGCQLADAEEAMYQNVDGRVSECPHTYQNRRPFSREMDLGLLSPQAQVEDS

[4] = molecular target: Glycogen synthase kinase-3 beta (Homo sapiens, UniProt P49841)
[5] = molecular target: T3, MAP/microtubule affinity-regulating kinase 4 (Homo sapiens, UniProt Q96L34)
T3 sequence (Q96L34 whole entry): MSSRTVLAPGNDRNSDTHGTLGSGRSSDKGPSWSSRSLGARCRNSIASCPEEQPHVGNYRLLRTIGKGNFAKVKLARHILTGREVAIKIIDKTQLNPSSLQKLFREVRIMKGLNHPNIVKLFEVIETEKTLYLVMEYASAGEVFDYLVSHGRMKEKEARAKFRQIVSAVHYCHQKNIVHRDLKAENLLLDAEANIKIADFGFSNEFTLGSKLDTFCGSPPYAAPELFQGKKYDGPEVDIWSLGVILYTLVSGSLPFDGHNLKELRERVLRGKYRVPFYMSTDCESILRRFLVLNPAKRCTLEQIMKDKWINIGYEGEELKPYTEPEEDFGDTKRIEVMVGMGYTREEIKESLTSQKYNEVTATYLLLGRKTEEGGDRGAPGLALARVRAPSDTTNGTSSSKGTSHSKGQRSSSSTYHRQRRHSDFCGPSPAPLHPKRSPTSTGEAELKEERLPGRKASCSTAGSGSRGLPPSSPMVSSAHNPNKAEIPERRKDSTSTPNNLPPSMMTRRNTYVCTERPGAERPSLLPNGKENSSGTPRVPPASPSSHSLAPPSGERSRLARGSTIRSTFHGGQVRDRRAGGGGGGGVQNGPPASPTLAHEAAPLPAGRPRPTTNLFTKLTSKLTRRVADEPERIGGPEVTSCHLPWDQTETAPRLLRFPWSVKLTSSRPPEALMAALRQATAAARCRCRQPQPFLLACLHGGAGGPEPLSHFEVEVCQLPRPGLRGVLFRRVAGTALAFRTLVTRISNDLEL

[6] = molecular target: Serine/threonine-protein kinase PAK 6 (Homo sapiens, UniProt Q9NQU5)
[7] = molecular target: Membrane-associated progesterone receptor component 1 (Homo sapiens, UniProt O00264)
[8] = molecular target: Dual specificity protein kinase CLK4 (Homo sapiens, UniProt Q9HAZ1)
Note: in the data inactive means no Kd found up to 30 µM.

Membrane-associated progesterone receptor component 1, sequence (O00264 whole entry): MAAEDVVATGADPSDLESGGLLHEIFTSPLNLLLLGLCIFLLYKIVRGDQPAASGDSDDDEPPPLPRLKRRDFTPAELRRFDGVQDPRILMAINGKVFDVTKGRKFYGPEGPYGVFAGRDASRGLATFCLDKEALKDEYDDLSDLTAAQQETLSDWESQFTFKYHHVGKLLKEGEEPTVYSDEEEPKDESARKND
Cyclin-dependent kinase 17, sequence (Q00537 whole entry): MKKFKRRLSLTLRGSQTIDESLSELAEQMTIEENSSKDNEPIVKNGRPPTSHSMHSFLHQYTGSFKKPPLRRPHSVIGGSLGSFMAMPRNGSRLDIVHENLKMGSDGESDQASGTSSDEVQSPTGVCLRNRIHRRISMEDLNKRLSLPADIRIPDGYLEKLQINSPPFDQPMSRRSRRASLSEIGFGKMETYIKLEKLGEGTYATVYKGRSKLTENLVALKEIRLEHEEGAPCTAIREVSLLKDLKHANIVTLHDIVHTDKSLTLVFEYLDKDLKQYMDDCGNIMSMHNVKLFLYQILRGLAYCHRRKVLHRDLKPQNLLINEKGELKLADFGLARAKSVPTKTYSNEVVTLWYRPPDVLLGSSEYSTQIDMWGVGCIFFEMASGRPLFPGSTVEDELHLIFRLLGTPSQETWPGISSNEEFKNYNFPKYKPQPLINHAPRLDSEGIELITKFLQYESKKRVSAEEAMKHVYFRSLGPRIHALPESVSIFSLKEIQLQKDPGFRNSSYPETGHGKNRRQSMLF
Glycogen synthase kinase-3 beta, sequence (P49841 whole entry): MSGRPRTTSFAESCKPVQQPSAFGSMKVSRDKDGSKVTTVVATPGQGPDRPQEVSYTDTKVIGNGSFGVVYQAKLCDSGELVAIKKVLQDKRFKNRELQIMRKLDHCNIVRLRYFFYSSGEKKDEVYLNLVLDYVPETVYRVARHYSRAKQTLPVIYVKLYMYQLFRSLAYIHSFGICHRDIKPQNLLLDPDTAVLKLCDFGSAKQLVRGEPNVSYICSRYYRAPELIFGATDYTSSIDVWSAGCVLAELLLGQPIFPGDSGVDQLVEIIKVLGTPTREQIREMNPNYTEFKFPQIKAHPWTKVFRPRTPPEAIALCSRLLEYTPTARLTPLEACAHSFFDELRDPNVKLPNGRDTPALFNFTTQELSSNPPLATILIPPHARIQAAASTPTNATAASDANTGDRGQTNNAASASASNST
Serine/threonine-protein kinase PAK 6, sequence (Q9NQU5 whole entry): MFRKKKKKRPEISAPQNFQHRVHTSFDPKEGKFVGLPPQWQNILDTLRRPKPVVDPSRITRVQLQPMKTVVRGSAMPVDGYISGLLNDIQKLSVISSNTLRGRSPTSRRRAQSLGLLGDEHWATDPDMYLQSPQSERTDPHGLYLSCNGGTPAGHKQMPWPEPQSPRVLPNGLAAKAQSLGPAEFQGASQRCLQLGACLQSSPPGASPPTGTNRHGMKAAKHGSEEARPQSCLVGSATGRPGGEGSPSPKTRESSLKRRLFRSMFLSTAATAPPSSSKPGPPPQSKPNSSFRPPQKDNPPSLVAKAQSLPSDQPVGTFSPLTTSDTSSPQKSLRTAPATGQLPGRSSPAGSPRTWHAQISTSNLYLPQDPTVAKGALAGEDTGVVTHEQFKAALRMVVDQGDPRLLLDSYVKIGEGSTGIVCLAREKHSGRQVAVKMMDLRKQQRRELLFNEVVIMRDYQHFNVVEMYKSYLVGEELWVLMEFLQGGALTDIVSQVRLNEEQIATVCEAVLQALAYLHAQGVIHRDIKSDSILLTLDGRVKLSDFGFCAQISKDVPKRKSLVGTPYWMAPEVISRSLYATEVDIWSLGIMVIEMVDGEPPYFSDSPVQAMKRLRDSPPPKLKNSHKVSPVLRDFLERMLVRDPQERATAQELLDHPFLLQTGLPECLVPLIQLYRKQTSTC
Dual specificity protein kinase CLK4, sequence (Q9HAZ1 whole entry): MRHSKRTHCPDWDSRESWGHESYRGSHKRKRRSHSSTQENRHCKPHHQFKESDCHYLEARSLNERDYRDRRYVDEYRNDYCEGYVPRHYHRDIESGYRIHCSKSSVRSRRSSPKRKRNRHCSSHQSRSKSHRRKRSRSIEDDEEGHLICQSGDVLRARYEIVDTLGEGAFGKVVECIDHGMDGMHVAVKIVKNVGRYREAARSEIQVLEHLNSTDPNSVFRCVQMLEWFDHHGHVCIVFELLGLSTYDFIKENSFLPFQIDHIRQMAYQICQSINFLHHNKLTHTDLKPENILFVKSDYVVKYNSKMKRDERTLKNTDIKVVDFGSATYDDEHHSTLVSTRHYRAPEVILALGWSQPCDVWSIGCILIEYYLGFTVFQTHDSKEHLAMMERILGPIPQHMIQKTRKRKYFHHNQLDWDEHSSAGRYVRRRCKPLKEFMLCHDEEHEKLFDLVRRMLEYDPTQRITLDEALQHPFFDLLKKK

SMILES | Kd [1] | Kd [2] | Kd [3] | Kd [4] | Kd [5] | Kd [7] | Kd [8] | Kd [6]
C[C@]1(O)C[C@@H](c2nc(-c3ccc4ccc(-c5ccccc5)nc4c3)c3c(N)nccn32)C1 [LINSITINIB] | > 30 µM (inactive) | – | – | – | > 30 µM (inactive) | > 30 µM (inactive) | – | > 30 µM (inactive)
Cn1c(=O)n(-c2ccc(C(C)(C)C#N)cc2)c2c3cc(-c4cnc5ccccc5c4)ccc3ncc21 [DACTOLISIB] | > 30 µM (inactive) | > 30 µM (inactive) | – | – | > 30 µM (inactive) | > 30 µM (inactive) | – | > 30 µM (inactive)
S=C(NCc1ccc2c(c1)OCO2)N1CCN(c2ncnc3c2oc2ccccc23)CC1 [AMUVATINIB] | > 30 µM (inactive) | – | > 30 µM (inactive) | > 30 µM (inactive) | > 30 µM (inactive) | > 30 µM (inactive) | > 30 µM (inactive) | –
CC1(COc2ccc3c(c2)ncn3-c2ccc3cccc(N4CCC(N)CC4)c3n2)COC1 [CRENOLANIB] | > 30 µM (inactive) | > 30 µM (inactive) | – | > 30 µM (inactive) | 0.025 µM (active) | – | – | > 30 µM (inactive)
CNC(=O)c1cc(COc2nnc(Nc3ccc(Cl)cc3)c3ccoc23)ccn1 [TELATINIB] | > 30 µM (inactive) | > 30 µM (inactive) | > 30 µM (inactive) | > 30 µM (inactive) | > 30 µM (inactive) | > 30 µM (inactive) | – | > 30 µM (inactive)
CNC(=O)c1ccc(Nc2ncc(C(F)(F)F)c(NCc3nccnc3N(C)S(C)(=O)=O)n2)cc1 [DEFACTINIB] | > 30 µM (inactive) | > 30 µM (inactive) | 0.34 µM (active) | 1.32 µM (active) | > 30 µM (inactive) | > 30 µM (inactive) | – | > 30 µM (inactive)
C=CC(=O)Nc1cc(Nc2nccc(-c3cn(C)c4ccccc34)n2)c(OC)cc1N(C)CCN(C)C [OSIMERTINIB] | > 30 µM (inactive) | > 30 µM (inactive) | > 30 µM (inactive) | > 30 µM (inactive) | > 30 µM (inactive) | > 30 µM (inactive) | > 30 µM (inactive) | –
C=CCn1c(=O)c2cnc(Nc3ccc(N4CCN(C)CC4)cc3)nc2n1-c1cccc(C(C)(C)O)n1 [ADAVOSERTIB] | > 30 µM (inactive) | > 30 µM (inactive) | – | – | > 30 µM (inactive) | > 30 µM (inactive) | – | > 30 µM (inactive)
Cc1c(Cn2c(C)nc3c(C(=O)O)cc(N4CCOCC4)cc32)cccc1C(F)(F)F [GSK-2636771] | > 30 µM (inactive) | > 30 µM (inactive) | > 30 µM (inactive) | > 30 µM (inactive) | > 30 µM (inactive) | > 30 µM (inactive) | > 30 µM (inactive) | –
C=CC(=O)Nc1cccc(Nc2nc(Nc3ccc(N4CCN(C(C)=O)CC4)cc3OC)ncc2C(F)(F)F)c1 [ROCILETINIB] | > 30 µM (inactive) | – | > 30 µM (inactive) | > 30 µM (inactive) | – | – | > 30 µM (inactive) | –
C=CCN(/C=C1/C(=O)O[C@H](COC)[C@@]2(C)C1=C(O)C(=O)C1=C2[C@H](OC(C)=O)C[C@]2(C)C(=O)CC[C@@H]12)CC=C [SONOLISIB] | > 30 µM (inactive) | > 30 µM (inactive) | > 30 µM (inactive) | > 30 µM (inactive) | – | – | – | > 30 µM (inactive)
Cc1c(NC(=O)OC[C@@H]2COCCN2)cn2ncnc(Nc3ccc4c(cnn4Cc4cccc(F)c4)c3)c12 [AC-480] | – | > 30 µM (inactive) | > 30 µM (inactive) | > 30 µM (inactive) | > 30 µM (inactive) | – | – | > 30 µM (inactive)
COc1ccc(-c2ccc3ncc4c(c3c2)n(-c2ccc(N3CCNCC3)c(C(F)(F)F)c2)c(=O)n4C)cn1 [BGT-226 FREE BASE] | > 30 µM (inactive) | > 30 µM (inactive) | > 30 µM (inactive) | > 30 µM (inactive) | > 30 µM (inactive) | > 30 µM (inactive) | – | > 30 µM (inactive)
CCN(CCCOc1ccc2c(Nc3cc(CC(=O)Nc4cccc(F)c4)n[nH]3)ncnc2c1)CCOP(=O)(O)O [BARASERTIB] | > 30 µM (inactive) | > 30 µM (inactive) | – | – | – | > 30 µM (inactive) | – | > 30 µM (inactive)
FC(F)(F)c1ccc(CNc2ccc(Cc3c[nH]c4ncc(Cl)cc34)cn2)cn1 [PEXIDARTINIB] | > 30 µM (inactive) | > 30 µM (inactive) | – | > 30 µM (inactive) | > 30 µM (inactive) | > 30 µM (inactive) | > 30 µM (inactive) | –
O=S(=O)(c1cccc2c(O)nccc12)N1CCCNCC1 [HYDROXYFASUDIL] | > 30 µM (inactive) | > 30 µM (inactive) | > 30 µM (inactive) | > 30 µM (inactive) | – | > 30 µM (inactive) | > 30 µM (inactive) | –

Now from value to molecule, other results behind:

Kd [1] | Kd [2] | Kd [3] | Kd [4] | Kd [5] | Kd [7] | Kd [8] | SMILES | Kd [6]
> 30 µM (inactive) | > 30 µM (inactive) | > 30 µM (inactive) | > 30 µM (inactive) | > 30 µM (inactive) | > 30 µM (inactive) | – | Cn1c(=O)c(F)c(Nc2ccc(I)cc2F)c2c(=O)n(C[C@@H](O)CO)cnc21 [TAK-733] | > 30 µM (inactive)
– | > 30 µM (inactive) | > 30 µM (inactive) | > 30 µM (inactive) | > 30 µM (inactive) | – | > 30 µM (inactive) | Cc1cc(C(=O)Nc2cc(Oc3ccc4nc(NC(=O)C5CC5)cn4n3)ccc2C)n(C)n1 [TAK-593] | –
– | – | > 30 µM (inactive) | > 30 µM (inactive) | > 30 µM (inactive) | > 30 µM (inactive) | > 30 µM (inactive) | COc1cccc2cc(-c3nc([C@H]4CC[C@H](C(=O)O)CC4)n4ncnc(N)c34)[nH]c12 [OSI-027] | –
> 30 µM (inactive) | > 30 µM (inactive) | > 30 µM (inactive) | > 30 µM (inactive) | > 30 µM (inactive) | > 30 µM (inactive) | > 30 µM (inactive) | COc1ccc2c(OCc3nnc4ccc(-c5ccccc5)nn34)ccnc2c1 [AMG-208] | –
